From US20260250318A1, “COMPOSITIONS AND METHODS FOR CROSSING THE BLOOD BRAIN BARRIER” (VOYAGER THERAPEUTICS, INC., priority 2022, published 2026)

test system: brains, heart, liver, muscle, and DRG of the NHPs; test: Maturation of TTM-001 and TTM-002 capsids, NGS enrichment in NHP tissues; format: in vivo; conditions: NGS fold-enrichment of RNA, NHP brain, relative to AAV9 control
Method in brief: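 Variants carry mutations within and flanking the loop IV peptide insert: positions 450–466 were triplet-randomized, while positions 449–466 received low-frequency point mutations. The combined pool went into two NHPs, and each peptide was scored by NGS enrichment ratio against AAV9.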

Row | Sequence | Fold Enrichment relative to AAV9, Brain (NHP)
1 | KTSSGSGSPHSKAQYQQT | 87.304 fold
2 | KELHGSGSPHSKAQNQQT | 102.680 fold
3 | KTINGSGSPHSKAHVRQT | 119.798 fold
4 | KAINGSGSPHSKAQDQET | 84.080 fold
5 | KTINGSGSPHSKALHQHT | 77.502 fold
6 | KTINGHDSPHKSGQSVPT | 77.840 fold

same assay, conditions: NGS fold-enrichment of matured AAV capsid variants; NHP brain, RNA; relative to AAV9 control

Row | Sequence | Fold Enrichment relative to AAV9, Brain (NHP)
7 | KTINGSGSPHSKARDWQT | 58.216 fold
8 | KTINGSGSPHSKAQHGLT | 55.999 fold
9 | KTINGSGSPHSKAQSTMT | 51.249 fold
10 | KTIDGSGSPHSKALNKQT | 58.992 fold
11 | KTINGSGSPHSKAQVPAT | 54.475 fold
12 | KTVNGSGSPHSKAQNQWT | 56.823 fold
13 | KTGNGSGSPHSKAQIQQT | 52.809 fold

same assay, conditions: NGS fold-enrichment, DRG of NHPs, relative to AAV9 control

Row | Sequence | Fold Enrichment relative to AAV9, DRG (NHP)
14 | KTSSGSGSPHSKAQYQQT | 0.000 fold
15 | KELHGSGSPHSKAQNQQT | 0.000 fold
16 | KTINGSGSPHSKAHVRQT | 0.000 fold
17 | KAINGSGSPHSKAQDQET | 0.000 fold
18 | KTINGSGSPHSKALHQHT | 0.000 fold
19 | KTEFVSGSPHSKAQNQQT | 0.000 fold

same assay, conditions: NGS fold-enrichment, NHP DRG, relative to AAV9 control

Row | Sequence | Fold Enrichment relative to AAV9, DRG (NHP)
20 | KTSSGSGSPHSKAQYQQT | 0.000 fold
21 | KELHGSGSPHSKAQNQQT | 0.000 fold
22 | KTINGSGSPHSKAHVRQT | 0.000 fold
23 | KAINGSGSPHSKAQDQET | 0.000 fold
24 | KTINGSGSPHSKALHQHT | 0.000 fold
25 | KTINGHDSPHKSGQSVPT | 0.000 fold

same assay, conditions: NGS fold-enrichment, NHP heart, relative to AAV9 control

Row | Sequence | Fold Enrichment relative to AAV9, Heart (NHP)
26 | KTSSGSGSPHSKAQYQQT | 0.000 fold
27 | KELHGSGSPHSKAQNQQT | 0.000 fold
28 | KTINGSGSPHSKAHVRQT | 0.000 fold
29 | KAINGSGSPHSKAQDQET | 0.000 fold
30 | KTINGSGSPHSKALHQHT | 0.052 fold
31 | KTINGHDSPHKSGQSVPT | 0.003 fold

same assay, conditions: NGS fold-enrichment, NHP liver DNA, relative to AAV9 control

Row | Sequence | Fold Enrichment relative to AAV9, Liver DNA (NHP)
32 | KTSSGSGSPHSKAQYQQT | 0.299 fold
33 | KELHGSGSPHSKAQNQQT | 0.592 fold
34 | KTINGSGSPHSKAHVRQT | 1.039 fold
35 | KAINGSGSPHSKAQDQET | 0.027 fold
36 | KTINGSGSPHSKALHQHT | 0.188 fold
37 | KTINGHDSPHKSGQSVPT | 0.061 fold

same assay, conditions: NGS fold-enrichment, NHP liver RNA, relative to AAV9 control

Row | Sequence | Fold Enrichment relative to AAV9, Liver RNA (NHP)
38 | KTSSGSGSPHSKAQYQQT | 0.000 fold
39 | KELHGSGSPHSKAQNQQT | 1.634 fold
40 | KTINGSGSPHSKAHVRQT | 0.694 fold
41 | KAINGSGSPHSKAQDQET | 0.194 fold
42 | KTINGSGSPHSKALHQHT | 0.000 fold
43 | KTINGHDSPHKSGQSVPT | 0.136 fold

same assay, conditions: NGS fold-enrichment, NHP muscle, relative to AAV9 control

Row | Sequence | Fold Enrichment relative to AAV9, Muscle (NHP)
44 | KTSSGSGSPHSKAQYQQT | 0.000 fold
45 | KELHGSGSPHSKAQNQQT | 0.000 fold
46 | KTINGSGSPHSKAHVRQT | 0.262 fold
47 | KAINGSGSPHSKAQDQET | 0.000 fold
48 | KTINGSGSPHSKALHQHT | 0.041 fold
49 | KTINGHDSPHKSGQSVPT | 0.000 fold

same assay, conditions: NGS fold-enrichment, RNA, brain of NHPs, relative to AAV9 control

Row | Sequence | Fold Enrichment relative to AAV9, Brain (NHP)
50 | KTSSGSGSPHSKAQYQQT | 87.304 fold
51 | KELHGSGSPHSKAQNQQT | 102.680 fold
52 | KTINGSGSPHSKAHVRQT | 119.798 fold
53 | KAINGSGSPHSKAQDQET | 84.080 fold
54 | KTINGSGSPHSKALHQHT | 77.502 fold
55 | KTEFVSGSPHSKAQNQQT | 59.306 fold

same assay, conditions: NGS fold-enrichment, heart of NHPs, relative to AAV9 control

Row | Sequence | Fold Enrichment relative to AAV9, Heart (NHP)
56 | KTSSGSGSPHSKAQYQQT | 0.000 fold
57 | KELHGSGSPHSKAQNQQT | 0.000 fold
58 | KTINGSGSPHSKAHVRQT | 0.000 fold
59 | KAINGSGSPHSKAQDQET | 0.000 fold
60 | KTINGSGSPHSKALHQHT | 0.052 fold
61 | KTEFVSGSPHSKAQNQQT | 0.000 fold

same assay, conditions: NGS fold-enrichment, liver DNA of NHPs, relative to AAV9 control

Row | Sequence | Fold Enrichment relative to AAV9, Liver DNA (NHP)
62 | KTSSGSGSPHSKAQYQQT | 0.299 fold
63 | KELHGSGSPHSKAQNQQT | 0.592 fold
64 | KTINGSGSPHSKAHVRQT | 1.039 fold
65 | KAINGSGSPHSKAQDQET | 0.027 fold
66 | KTINGSGSPHSKALHQHT | 0.188 fold
67 | KTEFVSGSPHSKAQNQQT | 0.276 fold

same assay, conditions: NGS fold-enrichment, liver RNA of NHPs, relative to AAV9 control

Row | Sequence | Fold Enrichment relative to AAV9, Liver RNA (NHP)
68 | KTSSGSGSPHSKAQYQQT | 0.000 fold
69 | KELHGSGSPHSKAQNQQT | 1.634 fold
70 | KTINGSGSPHSKAHVRQT | 0.694 fold
71 | KAINGSGSPHSKAQDQET | 0.194 fold
72 | KTINGSGSPHSKALHQHT | 0.000 fold
73 | KTEFVSGSPHSKAQNQQT | 0.196 fold

same assay, conditions: NGS fold-enrichment, muscle of NHPs, relative to AAV9 control

Row | Sequence | Fold Enrichment relative to AAV9, Muscle (NHP)
74 | KTSSGSGSPHSKAQYQQT | 0.000 fold
75 | KELHGSGSPHSKAQNQQT | 0.000 fold
76 | KTINGSGSPHSKAHVRQT | 0.262 fold
77 | KAINGSGSPHSKAQDQET | 0.000 fold
78 | KTINGSGSPHSKALHQHT | 0.041 fold
79 | KTEFVSGSPHSKAQNQQT | 0.000 fold

same assay, conditions: NHP DRG; relative to AAV9 control

Row | Sequence | Fold Enrichment relative to AAV9, DRG (NHP)
80 | KTINGSGSPHSKARDWQT | 0.000 fold
81 | KTINGSGSPHSKAQHGLT | 0.000 fold
82 | KTINGSGSPHSKAQSTMT | 0.018 fold
83 | KTIDGSGSPHSKALNKQT | 0.000 fold
84 | KTINGSGSPHSKAQVPAT | 0.000 fold
85 | KTVNGSGSPHSKAQNQWT | 0.000 fold
86 | KTGNGSGSPHSKAQIQQT | 0.000 fold

same assay, conditions: NHP heart; relative to AAV9 control

Row | Sequence | Fold Enrichment relative to AAV9, Heart (NHP)
87 | KTINGSGSPHSKARDWQT | 0.005 fold
88 | KTINGSGSPHSKAQHGLT | 0.000 fold
89 | KTINGSGSPHSKAQSTMT | 0.002 fold
90 | KTIDGSGSPHSKALNKQT | 0.267 fold
91 | KTINGSGSPHSKAQVPAT | 0.002 fold
92 | KTVNGSGSPHSKAQNQWT | 0.000 fold
93 | KTGNGSGSPHSKAQIQQT | 0.000 fold

same assay, conditions: NHP liver, DNA; relative to AAV9 control

Row | Sequence | Fold Enrichment relative to AAV9, Liver DNA (NHP)
94 | KTINGSGSPHSKARDWQT | 0.259 fold
95 | KTINGSGSPHSKAQHGLT | 0.244 fold
96 | KTINGSGSPHSKAQSTMT | 0.341 fold
97 | KTIDGSGSPHSKALNKQT | 0.056 fold
98 | KTINGSGSPHSKAQVPAT | 0.223 fold
99 | KTVNGSGSPHSKAQNQWT | 0.219 fold
100 | KTGNGSGSPHSKAQIQQT | 0.012 fold

same assay, conditions: NHP liver, RNA; relative to AAV9 control

Row | Sequence | Fold Enrichment relative to AAV9, Liver RNA (NHP)
101 | KTINGSGSPHSKARDWQT | 0.800 fold
102 | KTINGSGSPHSKAQHGLT | 1.913 fold
103 | KTINGSGSPHSKAQSTMT | 0.321 fold
104 | KTIDGSGSPHSKALNKQT | 0.000 fold
105 | KTINGSGSPHSKAQVPAT | 0.782 fold
106 | KTVNGSGSPHSKAQNQWT | 0.000 fold
107 | KTGNGSGSPHSKAQIQQT | 0.000 fold

same assay, conditions: NHP muscle; relative to AAV9 control

Row | Sequence | Fold Enrichment relative to AAV9, Muscle (NHP)
108 | KTINGSGSPHSKARDWQT | 0.000 fold
109 | KTINGSGSPHSKAQHGLT | 0.101 fold
110 | KTINGSGSPHSKAQSTMT | 0.002 fold
111 | KTIDGSGSPHSKALNKQT | 0.000 fold
112 | KTINGSGSPHSKAQVPAT | 0.000 fold
113 | KTVNGSGSPHSKAQNQWT | 0.299 fold
114 | KTGNGSGSPHSKAQIQQT | 0.000 fold

test system: brain; test: Matured TTM-001 and TTM-002 variants, NGS enrichment in mouse brain; format: in vivo, mice; conditions: NGS fold-enrichment, brain of mice, relative to AAV9 control

Row | Sequence | Fold Enrichment relative to AAV9, Brain (Mouse)
115 | KTSSGSGSPHSKAQYQQT | 58.143 fold
116 | KELHGSGSPHSKAQNQQT | 96.554 fold
117 | KTINGSGSPHSKAHVRQT | 165.590 fold
118 | KAINGSGSPHSKAQDQET | 87.637 fold
119 | KTINGSGSPHSKALHQHT | 68.196 fold
120 | KTEFVSGSPHSKAQNQQT | 69.788 fold

same assay, conditions: NGS fold-enrichment, mouse brain, relative to AAV9 control

Row | Sequence | Fold Enrichment relative to AAV9, Brain (Mouse)
121 | KTSSGSGSPHSKAQYQQT | 58.143 fold
122 | KELHGSGSPHSKAQNQQT | 96.554 fold
123 | KTINGSGSPHSKAHVRQT | 165.590 fold
124 | KAINGSGSPHSKAQDQET | 87.637 fold
125 | KTINGSGSPHSKALHQHT | 68.196 fold
126 | KTINGHDSPHKSGQSVPT | 6.768 fold

same assay, conditions: mouse brain; relative to AAV9 control

Row | Sequence | Fold Enrichment relative to AAV9, Brain (Mouse)
127 | KTINGSGSPHSKARDWQT | 120.704 fold
128 | KTINGSGSPHSKAQHGLT | 117.191 fold
129 | KTINGSGSPHSKAQSTMT | 73.213 fold
130 | KTIDGSGSPHSKALNKQT | 74.626 fold
131 | KTINGSGSPHSKAQVPAT | 137.743 fold
132 | KTVNGSGSPHSKAQNQWT | 69.906 fold
133 | KTGNGSGSPHSKAQIQQT | 98.291 fold
